From the supplement of paper PMC10307832

Experiments:
Assay in all cases: relative viability (nuclei count vs DMSO), 5 days (fraction); higher = more cells survive
[1] = compound: CC1=CC=C(C=C1)C(=O)CN2C3=C(CCCC3)SC2=N [Pifithrin_alpha] + COc1cccc2cc(-c3nc([C@H]4CC[C@H](C(=O)O)CC4)n4ncnc(N)c34)[nH]c12 [OSI-027] (partner 0.5 µM)
Procedure, shortened: (§1)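 The day after seeding in 1536-well plates, lung cancer cell lines were treated by pin tool with a single drug, or with a fixed anchor-drug dose together with five library-drug doses (not always all listed) in √10 steps. After 5 days, a combined fix-and-stain solution (final 0.05% Triton X-100, 1% formaldehyde, 1 ug/ml Hoechst) was added. Nuclei counted on 4× images gave relative viability as treated counts over vehicle counts, reported as the median of duplicate plates.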

Bemcentinib + Vorinostat = compound: Nc1nc(Nc2ccc3c(c2)CC[C@@H](N2CCCC2)CC3)nn1-c1cc2c(nn1)-c1ccccc1CCC2 [Bemcentinib] + O=C(CCCCCCC(=O)Nc1ccccc1)NO [Vorinostat] (partner 1 µM)
Procedure, shortened: as §1

Bemcentinib + Crizotinib = compound: Nc1nc(Nc2ccc3c(c2)CC[C@@H](N2CCCC2)CC3)nn1-c1cc2c(nn1)-c1ccccc1CCC2 [Bemcentinib] + C[C@@H](Oc1cc(-c2cnn(C3CCNCC3)c2)cnc1N)c1c(Cl)ccc(F)c1Cl [Crizotinib] (partner 1 µM)
Procedure, shortened: as §1

Axitinib + Tozasertib = compound: CNC(=O)c1ccccc1Sc1ccc2c(/C=C/c3ccccn3)n[nH]c2c1 [Axitinib] + Cc1cc(Nc2cc(N3CCN(C)CC3)nc(Sc3ccc(NC(=O)C4CC4)cc3)n2)n[nH]1 [Tozasertib] (partner 0.1 µM)
Procedure, shortened: as §1

Cell Line | relative viability ([1]; first compound 1 µM) | relative viability ([1]; first compound 3.162 µM) | relative viability ([1]; first compound 10 µM) | relative viability ([1]; first compound 31.62 µM) | relative viability ([1]; first compound 100 µM) | relative viability (Bemcentinib + Vorinostat; first compound 0.04 µM) | relative viability (Bemcentinib + Vorinostat; first compound 0.1265 µM) | relative viability (Bemcentinib + Vorinostat; first compound 0.4 µM) | relative viability (Bemcentinib + Vorinostat; first compound 1.265 µM) | relative viability (Bemcentinib + Vorinostat; first compound 4 µM) | relative viability (Bemcentinib + Crizotinib; first compound 0.04 µM) | relative viability (Bemcentinib + Crizotinib; first compound 0.1265 µM) | relative viability (Bemcentinib + Crizotinib; first compound 0.4 µM) | relative viability (Bemcentinib + Crizotinib; first compound 1.265 µM) | relative viability (Bemcentinib + Crizotinib; first compound 4 µM) | relative viability (Axitinib + Tozasertib; first compound 0.005 µM) | relative viability (Axitinib + Tozasertib; first compound 0.01581 µM) | relative viability (Axitinib + Tozasertib; first compound 0.05 µM) | relative viability (Axitinib + Tozasertib; first compound 0.1581 µM) | relative viability (Axitinib + Tozasertib; first compound 0.5 µM)
NCI-H358 | 0.761 | 0.797 | 0.658 | 0.629 | 0.528 | 0.665 | 0.745 | 0.701 | 0.806 | 0.839 | 0.587 | 0.506 | 0.511 | 0.54 | 0.53 | 0.105 | 0.0955 | 0.105 | 0.101 | 0.108
NCI-H2342 | 0.517 | 0.667 | 0.551 | 0.604 | 0.573 | 0.833 | 0.807 | 0.746 | 0.678 | 0.808 | – | – | – | – | – | 0.618 | 0.685 | 0.448 | 0.593 | 0.528
A-427 | 0.398 | 0.416 | 0.445 | 0.445 | 0.601 | 0.841 | 0.896 | 0.867 | 0.836 | 0.82 | – | 0.95 | 0.843 | 0.931 | 0.863 | 0.206 | 0.193 | 0.228 | 0.266 | 0.22
NCI-H2126 | – | 0.671 | 0.594 | 0.658 | 0.563 | 0.76 | 0.787 | 0.791 | 0.812 | 0.889 | 1.05 | 1.1 | 1.01 | 1.03 | 1.02 | 0.919 | 0.859 | 0.833 | 0.886 | 1
NCI-H647 | 0.589 | 0.757 | 0.556 | 0.517 | 0.57 | 0.649 | 0.55 | 0.594 | 0.424 | 0.675 | 1.13 | 1.39 | 1.1 | 1.12 | 1.21 | 0.383 | 0.354 | 0.264 | 0.566 | 0.516
ChaGo-K-1 | 0.374 | 0.479 | 0.53 | 0.321 | 0.482 | 0.686 | 0.832 | 0.823 | 0.749 | 0.755 | 1.12 | 1.33 | 1.15 | 1.18 | 1.12 | 0.217 | 0.205 | 0.212 | 0.237 | 0.255
UMC-11 | 0.537 | 0.518 | 0.56 | 0.485 | 0.456 | 0.387 | 0.359 | 0.344 | 0.321 | 0.376 | 0.568 | 0.57 | 0.589 | 0.692 | 0.662 | 0.211 | 0.195 | 0.2 | 0.202 | 0.206
LOU-NH91 | 0.592 | 0.692 | 0.703 | 0.655 | 0.595 | 0.845 | 0.871 | 0.999 | 0.917 | 0.945 | 0.717 | 0.726 | 0.732 | 0.753 | 0.756 | 0.682 | 0.54 | 0.746 | 0.694 | 0.827
HCC-44 | 0.39 | 0.391 | 0.481 | 0.324 | 0.268 | 1.15 | 1.2 | 1.05 | 1.13 | 1.08 | 0.832 | 0.806 | 0.864 | 0.813 | 0.852 | 1.07 | 1.14 | 0.702 | 1.02 | 1.19
HCC-15 | 0.503 | 0.61 | 0.611 | 0.376 | 0.485 | 0.853 | 0.953 | 0.913 | 0.927 | 0.879 | 0.834 | 0.91 | 0.908 | 0.871 | 0.92 | 0.461 | 0.564 | 0.435 | 0.49 | 0.605
NCI-H1975 | 0.731 | 0.583 | 0.319 | 0.309 | 0.276 | 0.709 | 0.805 | 0.776 | 0.808 | 0.777 | 1.07 | 1.23 | 1.07 | 1.1 | 1.17 | 0.79 | 0.819 | 0.719 | 0.875 | 0.867
NCI-H522 | 0.439 | 0.624 | 0.668 | 0.761 | 0.777 | 0.87 | 0.959 | 0.859 | 0.799 | 0.907 | – | – | – | – | – | 0.662 | 0.573 | 0.46 | 0.575 | 0.577
NCI-H1563 | 0.776 | 0.81 | 0.76 | 0.704 | 0.716 | – | – | – | – | – | 0.79 | 0.759 | 0.81 | 0.849 | 0.89 | – | – | – | – | –
NCI-H1703 | – | – | – | – | – | – | – | – | – | – | – | 0.687 | 0.723 | 0.717 | 0.627 | – | – | – | – | –
Calu-6 | – | – | – | – | – | – | – | – | – | – | 0.76 | 0.958 | 1.09 | 0.858 | 0.676 | – | – | – | – | –
NCI-H1792 | – | 0.668 | 0.538 | 0.391 | 0.458 | – | – | – | – | – | 1.02 | 1.2 | 1.26 | 0.965 | 0.957 | – | – | – | – | –
EBC-1 | – | – | – | – | – | – | – | – | – | – | 0.185 | 0.214 | 0.179 | 0.236 | 0.193 | – | – | – | – | –
SW 900 | 0.399 | 0.648 | 0.502 | 0.342 | 0.357 | 0.461 | 0.924 | 0.602 | 0.303 | 0.501 | – | – | – | – | – | 0.84 | 0.572 | 0.571 | 0.639 | 0.642
NCI-H1395 | 0.541 | 0.629 | 0.617 | 0.432 | 0.643 | – | 0.681 | 0.674 | 0.716 | 0.634 | – | – | – | – | – | 0.739 | 0.883 | 0.725 | 0.682 | 0.764
NCI-H1299 | – | – | – | – | – | – | – | – | – | – | 0.963 | 0.967 | 1.02 | 0.937 | 0.942 | – | – | – | – | –
NCI-H1793 | – | 0.249 | 0.201 | 0.218 | 0.198 | 0.63 | 1.15 | 0.74 | 0.461 | 0.699 | – | – | – | – | – | 0.311 | 0.311 | 0.46 | 0.346 | 0.351
NCI-H1623 | 0.401 | 0.5 | 0.38 | 0.331 | 0.324 | – | – | – | – | – | – | – | – | – | – | 0.457 | 0.506 | 0.432 | 0.498 | 0.45
